Reference: patent publication US8729271B2, “Glycine transporter inhibiting substances” (Taisho Pharmaceutical Co., Ltd, priority 2010, dated 2014)
Values joined by “and” are separate entries in the source; they are usually repeats but may differ in a detail not shown here. Equal entries are not always repeated.

target: T1, human type 1 glycine transporter (GlyT1) (Homo sapiens, UniProt P48067); experiment: Glycine uptake inhibition experiment ([3H]glycine uptake in T98G cells); assay type: cell-based; settings: T98G glioma cells; [3H]glycine 250 nM; 10-min pretreatment; 15 min at room temperature; read-out: glycine uptake inhibiting activity (IC50)
T1 construct: Used in the experiment were T98G cells (glioma cells) developing a human type 1 glycine transporter of (GlyT1); endogenous in cells; host or cells: T98G human glioma cells
T1 sequence (P48067 1-706): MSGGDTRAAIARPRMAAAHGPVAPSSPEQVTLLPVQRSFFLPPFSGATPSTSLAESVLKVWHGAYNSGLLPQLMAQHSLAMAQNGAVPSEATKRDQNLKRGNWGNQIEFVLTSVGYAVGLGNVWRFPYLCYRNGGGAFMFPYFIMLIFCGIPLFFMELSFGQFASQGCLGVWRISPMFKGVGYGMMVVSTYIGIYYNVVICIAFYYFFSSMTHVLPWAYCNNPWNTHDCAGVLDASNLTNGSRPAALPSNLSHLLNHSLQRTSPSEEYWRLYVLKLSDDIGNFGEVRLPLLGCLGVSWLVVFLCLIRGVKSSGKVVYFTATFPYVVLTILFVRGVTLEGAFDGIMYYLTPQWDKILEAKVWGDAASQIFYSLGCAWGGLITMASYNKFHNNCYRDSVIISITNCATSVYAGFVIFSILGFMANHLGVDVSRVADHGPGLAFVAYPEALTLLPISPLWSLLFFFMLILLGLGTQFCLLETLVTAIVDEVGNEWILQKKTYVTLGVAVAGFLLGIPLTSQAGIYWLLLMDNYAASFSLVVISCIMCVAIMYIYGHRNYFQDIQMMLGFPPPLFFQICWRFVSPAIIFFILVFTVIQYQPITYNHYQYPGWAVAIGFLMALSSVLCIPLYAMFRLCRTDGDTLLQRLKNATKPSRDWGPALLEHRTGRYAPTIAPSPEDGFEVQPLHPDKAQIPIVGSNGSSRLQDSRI
Method: A glycine uptake inhibition experiment was conducted in accordance with the method described in Neuron, 8, 927-935, 1992. Used in the experiment were T98G cells (glioma cells) developing a human type 1 glycine transporter of (GlyT1). The T98G cells were seeded in a 96-well plate at a density of 2.0×10^4 cells per well and cultured overnight in a CO2 incubator. The test substance was first dissolved in a 100% DMSO solution and then dissolved in a 10 mM HEPES buffer solution (pH 7.4) supplemented with 150 mM sodium chloride, 1 mM calcium chloride, 5 mM potassium chloride, 1 mM magnesium chloride, 10 mM glucose, and 0.2% bovine serum albumin. After removing the cell culture medium, the test substance was subjected to a 10-min pretreatment. Thereafter, the test substance and [^3H] glycine (final concentration: 250 nM) were added to the cells and reaction was performed at room temperature for 15 minutes. After the end of the reaction, the extracellular fluid was aspirated with a manifold to remove the excess marker glycine present outside of the cells; thereafter, the cells were lysed with an aqueous solution of 0.5 M sodium hydroxide. The glycine content in the cells was determined by measuring the radioactivity in the cell lysate with a liquid scintillation counter. With the amount of glycine uptake in the presence of 10 μM ALX5407 being referred to as the nonspecific uptake, the amount of specific uptake was calculated by subtracting the amount of nonspecific uptake from the total amount of uptake in the absence of 10 μM ALX5407. In addition, glycine uptake inhibiting activity (IC50) was calculated from an inhibition curve for the concentration of the test substance ranging from 10^−9 to 10^−5 M.
It should be noted that ALX5407 is a HCl salt of N-[(3R)-3-([1,1′-biphenyl]-4-yloxy)-3-(4-fluorophenyl)propyl]-N-methylglycine.
Incidentally, Compound 56 which is recited as 2HCl salt in the above Table 1-6 was subjected to measurement as its free form in the Glycine Uptake Inhibition Experiment.

| Compound | IC50 |
| --- | --- |
| CCCN(Cc1cc(-c2ccccc2)ccn1)C(=O)c1cn(C)cn1 [Compound 5] | ≥ 1000 nM and 1400 nM |
| CC(C)N(Cc1ccc(F)c(-c2ccccn2)c1)C(=O)c1cn(C)cn1 [Compound 14] | 18 nM |
| CC(C)N(Cc1ccc(F)c(-c2cccc3ncccc23)c1)C(=O)c1cn(C)cn1 [Compound 24] | ≥ 1000 nM |
| Cc1n[nH]c(C)c1-c1cc(CN(C(=O)c2cn(C)cn2)C(C)C)ccc1F [Compound 25] | ≥ 1000 nM |
| CC(C)N(Cc1ccc(F)c(-c2ncc[nH]2)c1)C(=O)c1cn(C)cn1 [Compound 29] | ≥ 1000 nM |
| CC(C)N(Cc1ccnc(-c2ccc(OC(F)(F)F)cc2)c1)C(=O)c1cn(C)cn1 [Compound 30] | 7.3 nM |
| CC(C)N(Cc1ccnc(-c2ccc(F)cc2)c1)C(=O)c1c[nH]cn1 [Compound 42] | ≥ 1000 nM |
| Cn1cnc(C(=O)N(CCC(F)(F)F)Cc2ccnc(-c3ccc(F)cc3)c2)c1 [Compound 52] | ≥ 1000 nM |
| Cc1cccc(C)c1-c1cc(CN(C(=O)c2cn(C)cn2)C(C)C)ccn1 [Compound 63] | ≥ 1000 nM |
| CC(C)N(Cc1ccc(F)c(-n2ccnc2)c1)C(=O)c1cn(C)cn1 [Compound 74] | 15 nM |
| Cn1cnc(C(=O)N(Cc2ccnc(-c3ccc(OC(F)(F)F)cc3)c2)C2CCC2)c1 [Compound 107] | 3.5 nM |
| CC(C)N(Cc1ccnc(-c2ccccc2OC(F)(F)F)c1)C(=O)c1cn(C)cn1 [Compound 111] | ≥ 1000 nM |
| Cn1cnc(C(=O)N(Cc2ccc(F)c(-c3ccc(F)nc3)c2)C2CCC2)c1 [Compound 120] | 8 nM |
| Cc1cnn(-c2cc(CN(C(=O)c3cn(C)cn3)C(C)C)ccc2F)c1 [Compound 121] | 160 nM |
| Cc1cn(-c2cc(CN(C(=O)c3cn(C)cn3)C(C)C)ccc2F)c(C)n1 [Compound 132] | ≥ 1000 nM |
| CC(C)N(Cc1ccnc(-c2cc(F)ccc2C(F)(F)F)c1)C(=O)c1cn(C)cn1 [Compound 137] | ≥ 1000 nM |
| CC(C)N(Cc1noc(-c2ccc(Cl)cc2)n1)C(=O)c1cn(C)cn1 [Compound 138] | ≥ 1000 nM |
| CC(C)N(Cc1ccc(F)c(-c2ccc(F)nc2)c1)C(=O)c1c[nH]cn1 [Compound 141] | ≥ 1000 nM |
| Cc1cn(-c2cc(CN(C(=O)c3cn(C)cn3)C(C)C)ccc2F)cn1 [Compound 143] | 64 nM |
| CC(C)N(Cc1ccnc(-c2ccc(OC(F)(F)F)cc2)c1)C(=O)c1c[nH]cn1 [Compound 146] | ≥ 1000 nM |
| CC(c1ccnc(-c2ccc(F)cc2)c1)N(C(=O)c1cn(C)cn1)C1CCC1 (stereo not drawn) [Compound 153] | 30 nM |
| Cn1cnc(C(=O)N(Cc2csc(-c3ccc(OC(F)(F)F)cc3)n2)C2CCC2)c1 [Compound 155] | 5.8 nM |
| Cn1cnc(C(=O)N(Cc2nc(-c3ccc(OC(F)(F)F)cc3)no2)C2CCC2)c1 [Compound 160] | 330 nM |
| Cn1cnc(C(=O)N(Cc2ccc(F)c(-c3ccc(N4CCCC4)nc3)c2)C2CCC2)c1 [Compound 161] | 12 nM |
| Cn1cnc(C(=O)N(Cc2ccc(F)c(-c3cccnc3C(F)(F)F)c2)C2CCOCC2)c1 [Compound 168] | ≥ 1000 nM |
| Cn1cnc(C(=O)N(Cc2ccnc(-c3cc(F)c(F)cc3F)c2)C2CCC2)c1 [Compound 191] | 16 nM |
| Cn1cnc(C(=O)N(Cc2ccc(F)c(-c3cc(C(F)(F)F)ncn3)c2)C2CCC2)c1 [Compound 208] | 14 nM |
| Cn1cnc(C(=O)N(Cc2ccnc(-c3ccc(F)c(OC(F)F)c3)c2)C2CCC2)c1 [Compound 213] | 3.7 nM |

target: T2, P-glycoprotein (P-gp), Human MDR1 (Homo sapiens, UniProt P08183); experiment: Test for recognizability of P-gp substrate (LLC-GAS-COL 300 cells, Transwell); assay type: in vitro ADME; settings: 10 μM; LLC-GAS-COL 300 cells (Human MDR1 in LLC-PK1); criteria of Nature Reviews Drug Discovery (2010) 9, 215-236
T2 construct: expressed in transfected cells; host or cells: LLC-GAS-COL 300 cells (derived from pig kidney LLC-PK1)
Excerpt: In order that drugs acting on the central nervous system will develop their efficacy, their passage from the blood to the brain is generally important. While various efflux transporters are present at the blood-brain barrier to control this passage of drugs, P-glylcoprotein (P-gp) is a typical example and inhibits the passage to the brain of any drugs that serve as the substrate for P-gp. Therefore, in the development of pharmaceuticals, nonrecognizability of a candidate drug as the substrate for P-gp is the key to its passage to the brain.
A test for recognizability of P-gp substrate was performed in accordance with a modified version of the methods described in J Pharmacol. Exp. Ther. (1992) Vol. 263, No. 2, 840-845 and J Biol. Chem. (1992) Vol. 267, No. 34, 24248-24252. To be more specific, LLC-GAS-COL 300 cells (Human MDR1 expressing system derived from pig kidney derived, cultured renal epithelial cell line LLC-PK1) were cultured for 4 days on a Transwell and replaced by a Hank's balanced salt solution (HBSS) in each well just before the test. A solution of an assay compound (a DMSO solution of the compound as diluted with HBSS and adjusted to a final concentration of 10 μM) was added to the donor side of the LLC-GAS-COL 300 cells and a prescribed amount of HBSS was collected from the acceptor side at given time intervals and the concentration of the assay compound in the collected sample was measured by LC-MS/MS.
From the cumulative amount of the compound's permeation into the acceptor, the membrane permeability coefficient (×10^−6 cm/sec) was calculated for each of apical→basal mode and basal→apical mode and the recognizability of P-gp substrate was assessed in terms of the ratio between the two modes (efflux ratio).

T2 sequence (P08183 whole entry): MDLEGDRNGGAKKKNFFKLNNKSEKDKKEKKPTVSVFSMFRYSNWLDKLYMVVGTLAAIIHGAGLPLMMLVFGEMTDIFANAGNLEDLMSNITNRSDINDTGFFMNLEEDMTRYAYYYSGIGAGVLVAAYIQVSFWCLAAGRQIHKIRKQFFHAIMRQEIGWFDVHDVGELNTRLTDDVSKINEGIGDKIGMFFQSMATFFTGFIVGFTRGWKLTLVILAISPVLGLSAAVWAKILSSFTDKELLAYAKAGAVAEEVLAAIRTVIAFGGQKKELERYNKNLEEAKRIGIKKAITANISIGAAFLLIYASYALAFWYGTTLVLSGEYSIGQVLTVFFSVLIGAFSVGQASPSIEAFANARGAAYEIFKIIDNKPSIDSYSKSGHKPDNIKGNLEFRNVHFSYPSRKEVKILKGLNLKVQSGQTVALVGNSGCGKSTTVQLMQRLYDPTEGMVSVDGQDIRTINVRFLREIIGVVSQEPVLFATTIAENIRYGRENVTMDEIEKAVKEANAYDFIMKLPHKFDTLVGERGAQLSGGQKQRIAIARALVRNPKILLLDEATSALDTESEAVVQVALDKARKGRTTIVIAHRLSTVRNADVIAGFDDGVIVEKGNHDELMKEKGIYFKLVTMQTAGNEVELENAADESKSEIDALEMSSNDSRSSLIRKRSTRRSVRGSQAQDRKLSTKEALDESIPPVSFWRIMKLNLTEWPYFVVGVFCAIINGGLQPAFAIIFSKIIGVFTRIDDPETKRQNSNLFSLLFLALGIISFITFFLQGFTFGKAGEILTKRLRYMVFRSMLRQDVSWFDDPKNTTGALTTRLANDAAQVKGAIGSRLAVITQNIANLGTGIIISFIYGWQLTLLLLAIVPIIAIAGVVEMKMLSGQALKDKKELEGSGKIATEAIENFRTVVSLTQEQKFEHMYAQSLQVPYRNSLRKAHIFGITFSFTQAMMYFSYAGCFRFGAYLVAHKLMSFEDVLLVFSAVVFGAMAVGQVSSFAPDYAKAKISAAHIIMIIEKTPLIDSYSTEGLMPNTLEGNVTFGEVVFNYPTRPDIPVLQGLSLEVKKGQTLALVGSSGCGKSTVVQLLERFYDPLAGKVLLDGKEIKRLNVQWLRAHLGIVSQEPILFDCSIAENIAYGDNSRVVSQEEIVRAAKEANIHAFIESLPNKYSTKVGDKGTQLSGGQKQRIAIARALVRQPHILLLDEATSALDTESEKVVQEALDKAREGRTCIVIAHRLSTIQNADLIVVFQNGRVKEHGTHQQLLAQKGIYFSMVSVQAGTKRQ

| Compound | recognizability as P-gp substrate (from efflux ratio basal→apical / apical→basal) |
| --- | --- |
| CC(C)N(Cc1ccc(F)c(-c2ccc(F)nc2)c1)C(=O)c1cn(C)cn1 [Compound 9] | not recognizable as the substrate for P-gp |
| CC(C)N(Cc1ccc(F)c(-c2ccccn2)c1)C(=O)c1cn(C)cn1 [Compound 14] | not recognizable as the substrate for P-gp |
| CC(C)N(Cc1ccc(F)c(-c2cncc(F)c2)c1)C(=O)c1cn(C)cn1 [Compound 15] | not recognizable as the substrate for P-gp |
| CC(C)N(Cc1ccnc(-c2ccc(OC(F)(F)F)cc2)c1)C(=O)c1cn(C)cn1 [Compound 30] | not recognizable as the substrate for P-gp |
| CC(C)N(Cc1ccnc(-c2ccc(F)cc2)c1)C(=O)c1cn(C)cn1 [Compound 31] | not recognizable as the substrate for P-gp |
| CC(C)N(Cc1ccnc(-c2ccccc2)c1)C(=O)c1cn(C)cn1 [Compound 36] | not recognizable as the substrate for P-gp |
| CC(C)CN(Cc1ccnc(-c2ccc(F)cc2)c1)C(=O)c1cn(C)cn1 [Compound 54] | not recognizable as the substrate for P-gp |
| CCn1cnc(C(=O)N(Cc2ccnc(-c3ccc(F)cc3)c2)C(C)C)c1 [Compound 56] | not recognizable as the substrate for P-gp |
| CC(C)N(Cc1ccnc(-c2cc(F)cc(F)c2)c1)C(=O)c1cn(C)cn1 [Compound 62] | not recognizable as the substrate for P-gp |
| CC(C)N(Cc1ccnc(-c2ccc(Cl)cc2)c1)C(=O)c1cn(C)cn1 [Compound 69] | not recognizable as the substrate for P-gp |
| CC(C)N(Cc1ccc(F)c(-n2cccn2)c1)C(=O)c1cn(C)cn1 [Compound 73] | not recognizable as the substrate for P-gp |
| CC(C)N(Cc1ccnc(-c2ccc(OC(F)F)cc2)c1)C(=O)c1cn(C)cn1 [Compound 124] | not recognizable as the substrate for P-gp |
| CN(C)c1ccc(-c2cc(CN(C(=O)c3cn(C)cn3)C3CCC3)ccc2F)cn1 [Compound 158] | not recognizable as the substrate for P-gp |
| COCCN(Cc1ccnc(-c2cccc(OC(F)(F)F)c2)c1)C(=O)c1cn(C)cn1 [Compound 198] | not recognizable as the substrate for P-gp |
